Common to all, as to assay: LIVE/DEAD cytotoxicity assay, inhibition of cell proliferation
What all share (assay type): cell-based, human

One assay concerns A375 cells. How it is done:
(§1) The compounds of the general formula (I) according to the invention were tested for a possible cytotoxic or proliferation-inhibiting activity on the human tumour cell lines HeLa, SW620 and A375 (all from ATTC, American Type Culture Collection). To this end, the cells were plated in microtitre plates from Greiner (Manufacturer No. 781092) at a cell density of 1000 cells/microtitre plate well and cultivated in cell culture medium at 37° C. under a 5% carbon dioxide atmosphere. Cell culture media and additives were purchased from Invitrogen and the foetal calf serum from Biochrom. The cell culture media for Hela and A375 cells were used as stated by ATCC (HeLa: MEM, Order No. 10370-047, with 1% sodium bicarbonate, 1% non-essential amino acids, 1% sodium pyruvate, 10% foetal calf serum, 0.1% gentamycin; A375: DMEM, Order No. 41965-039, 2% sodium bicarbonate, 1% L-Glutamax, 10% foetal calf serum, 0.1% gentamycin). The culture medium for the SW620 cells consisted of DMEM, Order No. 41965-039, 1% non-essential amino acids, 10% foetal calf serum, 0.1% gentamycin.
(§2) 24 hours after the cells had been plated in the microtitre plates, various concentrations of at most 100 μM down to a minimum concentration of 5 nM of the test compounds were added to the cells. Stock solutions of the test compounds (10 mM) were prepared in DMSO and stored at −20° C.; for the cytotoxicity tests, the test compounds were diluted in the appropriate cell culture medium.
(§3) After a further 48 hours of incubation, the cells were washed with medium and analysed with the aid of a two-colour fluorescence cytotoxicity/viability test (LIVE/DEAD viability/cytotoxicity ASSAY kit from Molecular Probes, Order No. L-3224), according to the instructions of the manufacturer. To this end, the medium was aspirated and in each case 30 μl of LIVE/DEAD reagent per microtitre plate well were added to the cells, which were then incubated for 30 minutes. The cells were then washed with PBS (phosphate-buffered saline). The number of live cells was analysed by measuring the green fluorescence of the live dye calcein-AM as a component of the LIVE/DEAD reagent using a fluorescence plate reader (Flexstation, from Molecular Devices) at an excitation wavelength of 485 nm and an emission wavelength of 525 nm (cf. Oral, H. B. Endothelium 6, (1998), 143-151).
(§4) Cells only with cell culture medium, without added test compounds, were treated in parallel and analysed as growth controls. The reference compounds used for anti-tumour agents having a cytotoxic or proliferation-inhibiting action were colchicine (from Merck/Calbiochem, Order No. 234115) and Taxol (baccatin III N-benzyl-b-phenylisoserine ester, from Merck/Calbiochem, Order No. 580555) (cf. Schiff, P. B. and Horwitz, S. B., Proceedings of the National Academy of Sciences of the U.S.A. 77, 1561-1565, 1980; Holmes, F. A. et al., Journal of the National Cancer Institute 83, 1797-1805, 1991).
(§5) The cytotoxic effects of the test compounds were expressed as logarithmic GI50 values (growth-inhibiting logarithmic concentration value at which a cell growth reduced by 50% compared to the control without test compounds was measured (cf. Xia et al., Journal of Medicinal Chemistry 44, 3932-3936, 2001; Smith, J. A. et al., Gynecologic Oncology 98, 141-145, 2005)).

A further assay relates to SW620 cells. On the procedure:
as §1, §2, §3, §4, §5

In a further assay the test system is HeLa cells. More on the design: log GI50 values (M), HeLa cells: unit not given here. How it is done:
as §1
24 hours after the cells had been plated in the microtitre plates, various concentrations of at most 100 μM down to a minimum concentration of 5 nM of the test compounds were added to the cells. […]
as §3, with “To this end, the medium was aspirated and in each case 30 μl of LIVE/DEAD reagent per microtitre plate well were added to the cells, which were then incubated for 30 minutes. The cells were then washed with PBS (phosphate-buffered saline).” left out
Cells only with cell culture medium, without added test compounds, were treated in parallel and analysed as growth controls. […]

Setting [1] is: 48 hours of incubation, calcein-AM fluorescence, cell growth reduced by 50% compared to control.

Each structure is given as a SMILES string.

The text below walks through data of patent US20090131406A1 (BAYER CROPSCIENCE AG, priority 2005, published 2009).

Turning to `COc1cc2c(c(OC)c1OC)-c1ccc(OC)c(=O)cc1[C@@H](NC(C)=O)CC2` [Colchicine, colchicine], the GI50 (as a rule, the concentration at which growth is held to half of that of the control) in the assay on A375 cells (Homo sapiens, A-375, 48 h, read-out: log GI50 values (M), A375 cells (converted)) was 2e-08 M; with SW620 cells (Homo sapiens, SW-620, 48 h, read-out: log GI50 values (M), SW620 cells (converted)), 1.26e-08 M; in the assay with HeLa cells (Homo sapiens, 48 h, read-out: log GI50 values (M), HeLa cells (converted)), 1.58e-08 M.
As for `CO[C@@H]1[C@@H](OC)[C@H](O[C@@H]2CC(=O)[C@@H]3CCN(Cc4cc5c(cc43)OCO5)C(=O)[C@H]2O)O[C@H](CO)[C@H]1OC` [Cripowellin II, cripowellin II], the “log GI50 values (M), A375 cells” value with A375 cells (setting [1]) is reported as 8.0 M. Also, the “log GI50 values (M), SW620 cells” value in the assay on SW620 cells (setting [1]) is given as 6.9 -log M. Besides, the “log GI50 values (M), HeLa cells” value in the assay on HeLa cells (setting [1]) is listed as 8.7.
